Experiments:
[1] = test system: human Kif5B 1–905-EGFP on stabilized MTs; test: Single-molecule kinesin-1 motility assay on stabilized MTs (TIRF); type: biochemical
Experimental: To gain mechanistic insight into the kinesin phenotype observed in cells, we reduced system complexity using an in vitro reconstitution assay. Specifically, we performed time-lapse imaging using total internal reflection fluorescence (TIRF) microscopy with immobilized and stabilized MTs in a flow chamber, into which we introduced 1.08 nM kinesin-1 motors (constitutively active human Kif5B 1–905-EGFP). We then analyzed individual kinesin movements to quantify landing rates (number of motors per unit MT length per unit time), run lengths, interaction times, and average velocities (Figure D, Movies S12–S15). In contrast to our experiments in cells, here we evaluated each structural modification individually to dissect the effects of MT lattice parameters on kinesin-1 mediated transport.
Total Internal Reflection Fluorescence microscopy experiments were performed on an inverted widefield microscope Nikon-Ti2 E, equipped with a motorized XY-stage, a perfect focus system, Apo TIRF 60× oil NA 1.49 objective and PRIME BSY (Teledyne Photometrics) camera. MTs were visualized using Interference Reflection microscopy (IRM) and fluorescently labeled proteins were visualized sequentially by switching between microscope filter cubes for GFP and mCherry channels. The microscopes were controlled using NIS Elements software (Nikon). All experiments were conducted at RT.
Microscopy chambers were prepared from two sandwiched silanized glass coverslips (22 × 22 mm^2 and 18 × 18 mm^2) attached through parafilm strips (heated for 15–20 s at 60 °C and gently pressed together) to form ∼2.5 mm wide parallel flow channels. Prior to the chamber assembly, the coverslips were washed in 3 M KOH, cleaned using Zepto plasma cleaner (Diener electronic) and silanized with hexamethyldisilazane. Flow channels were first incubated with 40 μgml^–1 antibiotin antibodies (Sigma, B3640) in PBS for 10 min, followed by incubation with 1% Pluronic F127 (Sigma-Aldrich, P2443) in PBS for at least 1 h. F127 was washed with BRB80 (80 mM PIPES, 1 mM EGTA, 1 mM MgCl2, pH 6.9).
Porcine brain tubulin was isolated using the high-molarity PIPES procedure then mixed with Biotin labeled tubulin (Cytoskeleton Inc., T333P) in 1:49 ratio. All MTs were polymerized using 2% biotin-labeled tubulin. […] Polymerized MTs were centrifuged for 30 min at 18,000g in a Microfuge 18 Centrifuge (Beckman Coulter’s). […] Drug stabilized preassembly MTs (polymerized in the presence of drugs and GTP, stored and imaged in presence of drug) were polymerized from 4 mg mL^–1 biotinylated tubulin for 30 min at 37 °C in BRB80 supplemented with 4 mM MgCl2, 40 μM drug of interest in 5% DMSO, and 1 mM GTP. Polymerized MTs were centrifuged for 30 min at 18,000g in a Microfuge 18 Centrifuge (Beckman Coulter’s). […] GMPCPP stabilized MTs (GMPCPP polymerized) were assembled from 4 mg mL^–1 biotinylated tubulin for 2 h at 37 °C in BRB80 supplemented with 1 mM MgCl2 and 1 mM GMPCPP (Jena Bioscience, NU-405). Polymerized MTs were centrifuged for 30 min at 18,000g in a Microfuge 18 Centrifuge (Beckman Coulter’s) and pellets were resuspended and kept in BRB80.
Stabilized MTs were flushed into the channel and incubated for 15–30 s to allow for surface attachment. Unbound MTs were removed by washing with BRB80 supplemented with 10 μM of drug. Prior the experiment, the solution was exchanged by motility buffer, MB (BRB80 containing 10 mM DTT, 20 mM D-glucose, 0.1% Tween-20, 0.5 mg/mL casein, 1 mM Mg-ATP, 0.02 mg/mL catalase, 0.22 mg/mL glucose oxidase, 10 μM drug). Subsequently, a solution containing either 1.08 nM Kif5b-EGFP or 10/40 nM mCherry-Tau in MB was introduced into the chamber.
To assess kinesin-EGFP motility along MTs, an IRM image (50 ms exposure) was acquired followed by a 1 min video using 488 nm laser excitation (20% laser intensity, 300 ms exposure) with no delay. Two to three videos were recorded from different fields within the same channel and at least 2 channels were measure for each experimental condition. […]

A549 cells = test: Indirect immunofluorescence of the microtubular network; type: cell-based, human; settings: 24 h
Text: We first assessed their impact on the cellular microtubular network. […] These defects manifested as multinucleated cells resulting from multiple abnormal star-like spindles, leading to an aberrant arrangement of chromosomes. […] We then evaluated their ability to overcome intrinsic resistance mechanisms using cell lines overexpressing βIII-tubulin isotype (HeLaβIII) or P-glycoprotein, PgP, (Kb-V1), compared to parental HeLa and Kb-3.1 cells.
2 Cellular and biochemical characterization of compounds 1a and 1b. (A) Effects of compounds on A549 cells. […] Top row panels are control cells treated with 0.5% DMSO (vehicle), with the usual and evenly distributed microtubular network in interphase and normal bipolar spindle with chromosomes aligned at the metaphase plate during mitosis. […] All images are shown at the same magnification; scale bar 10 μm. […] (C) Van’t Hoff Plot of the equilibrium binding constants of compounds 1a and 1b at the assayed temperatures. Error bars represent the standard error of the measurement.
DMSO was always less than 0.5% v/v. PEG and Triton X-100 were applied to cells prior the fixation with 3.7% formaldehyde, as previously described. Cells were incubated with a DM1A mouse monoclonal antibody (Sigma-Aldrich) reacting with α-tubulin. […] Images were recorded using a Leica DFC360 FX CCD camera.

## CC(=O)O[C@H]1C(=O)[C@@]2(C)[C@H]([C@H](OC(=O)c3ccccc3)[C@]3(O)C[C@H](OC(=O)[C@H](O)[C@@H](NC(=O)c4ccccc4)c4ccccc4)C(C)=C1C3(C)C)[C@]1(OC(C)=O)CO[C@@H]1C[C@@H]2O [PTX, Paclitaxel]
[1]; compared to native-like MTs
  kinesin-1 run length on stabilized MTs: reduce run length

## COc1ccc2c(c1)CC(NC(=O)CCCCCCCC(=O)OC1CC3OCC3(OC(C)=O)C3C(OC(=O)c4ccccc4)C4(O)CC(OC(=O)C(O)C(NC(=O)c5ccccc5)c5ccccc5)C(C)=C(C(OC(C)=O)C(=O)C13C)C4(C)C)CC2 [1b, 7-O-((S)-9″-(7‴-Methoxy-1‴,2‴,3‴,4‴-tetrahydronaphthalen-2‴-yl)amino) −9″-oxononanoyl) Paclitaxel]
A549 cells
  selected concentration showing equivalent effect on microtubular network and mitotic spindles: 1 µM

## CC(=O)OC1C(=O)C2(C)C(OC(=O)CCCCC(=O)OC3CCc4ccccc43)CC3OCC3(OC(C)=O)C2C(OC(=O)c2ccccc2)C2(O)CC(OC(=O)C(O)C(NC(=O)c3ccccc3)c3ccccc3)C(C)=C1C2(C)C (stereo not drawn) [1a, 7-O-(6″-O-(2‴,3‴-Dihydroinden-1‴-yl)hexanedioyl) Paclitaxel]
A549 cells
  selected concentration showing equivalent effect on microtubular network and mitotic spindles: 2 µM
[1]; 1.08 nM Kif5b-EGFP, 10 μM drug
  kinesin-1 landing rate on stabilized MTs: increased on 1a compared with 1b
  kinesin-1 time bound on stabilized MTs: increased the time bound
  kinesin-1 velocity on stabilized MTs: decreased the velocity

From article PMC13492380, “Dissecting Structural and Functional Determinants of Microtubules Stabilization through Guided Chemical Modulation” (Journal of Medicinal Chemistry, 2026)
